This is an account of results in PMC6576746, “Rational discovery of dual-indication multi-target PDE/Kinase inhibitor for precision anti-cancer therapy using structural systems pharmacology” (PLoS Computational Biology, 2019).

Test in all cases: biochemical
Set-up in all cases: DiscoverX KinomeScan competition binding assay across human kinases; per cent of control at 10 and 100 uM

One assay addresses BTK (Homo sapiens, UniProt Q06187). To be noted: competition binding, % of control; read-out: Percent Control (100 uM Levosimendan). In a few lines:
(§1)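 Binding is expressed as %control, normalised between positive and negative control signals. The compound (levosimendan) was tested at 10 μM and 100 μM in the DiscoverX KinomeScan competition binding format against human kinases.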

For another assay, the target named is T1, QSK (Homo sapiens, UniProt Q9Y2K2).
T1 construct: gene SIK3
To be noted: competition binding, % of control; read-out: Percent Control (100 uM Levosimendan). In a few lines: as §1

In another assay the target is T2, SGK (Homo sapiens, UniProt O00141).
T2 construct: gene SGK1
The settings on record: competition binding, % of control. In a few lines: as §1

Another assay addresses TSSK1B (Homo sapiens, UniProt Q9BXA7). The settings on record: competition binding, % of control; read-out: Percent Control (100 uM Levosimendan). The method, boiled down:
as §1

Assay [1] has as its target T3, ABL1(F317L)-nonphosphorylated (Homo sapiens, UniProt P00519, F317L).
T3 construct: nonphosphorylated
The settings on record: competition binding, % of control; read-out: Percent Control (100 uM Levosimendan). The method, boiled down: as §1

The next assay concerns the target T4, ICK (Homo sapiens, UniProt Q9UPZ9).
T4 construct: gene CILK1
The settings on record: competition binding, % of control; read-out: Percent Control (100 uM Levosimendan). The method, boiled down: as §1

In another assay the target is T5, CDC2L2 (Homo sapiens, UniProt Q9UQ88).
T5 construct: gene CDK11A
The settings on record: competition binding, % of control; read-out: Percent Control (100 uM Levosimendan). In a few lines: as §1

Another assay has as its target SRPK2 (Homo sapiens, UniProt P78362). The settings on record: competition binding, % of control; read-out: Percent Control (100 uM Levosimendan). The method, boiled down:
as §1

In a further assay the target is PIM1 (Homo sapiens, UniProt P11309). The settings on record: competition binding, % of control; read-out: Percent Control (100 uM Levosimendan). The method, boiled down: as §1
The target in the next assay is EPHA2 (Homo sapiens, UniProt P29317). The settings on record: competition binding, % of control; read-out: Percent Control (100 uM Levosimendan). In a few lines:
as §1

In another assay the target is T6, NDR2 (Homo sapiens, UniProt Q9Y2H1).
T6 construct: gene STK38L
To be noted: competition binding, % of control; read-out: Percent Control (100 uM Levosimendan). In a few lines:
as §1

In a further assay the target is T7, LOK (Homo sapiens, UniProt O94804).
T7 construct: gene STK10
To be noted: competition binding, % of control; read-out: Percent Control (100 uM Levosimendan). The method, boiled down:
as §1

Another assay addresses MYLK2 (Homo sapiens, UniProt Q9H1R3). The settings on record: competition binding, % of control; read-out: Percent Control (100 uM Levosimendan). In a few lines: as §1
The target of a further assay is T8, MEK6 (Homo sapiens, UniProt P52564).
T8 construct: gene MAP2K6
The settings on record: competition binding, % of control; read-out: Percent Control (100 uM Levosimendan). The method, boiled down: as §1

The next assay deals with T9, MYLK4 (Homo sapiens, UniProt Q86YV6).
T9 sequence (Q86YV6 1-388): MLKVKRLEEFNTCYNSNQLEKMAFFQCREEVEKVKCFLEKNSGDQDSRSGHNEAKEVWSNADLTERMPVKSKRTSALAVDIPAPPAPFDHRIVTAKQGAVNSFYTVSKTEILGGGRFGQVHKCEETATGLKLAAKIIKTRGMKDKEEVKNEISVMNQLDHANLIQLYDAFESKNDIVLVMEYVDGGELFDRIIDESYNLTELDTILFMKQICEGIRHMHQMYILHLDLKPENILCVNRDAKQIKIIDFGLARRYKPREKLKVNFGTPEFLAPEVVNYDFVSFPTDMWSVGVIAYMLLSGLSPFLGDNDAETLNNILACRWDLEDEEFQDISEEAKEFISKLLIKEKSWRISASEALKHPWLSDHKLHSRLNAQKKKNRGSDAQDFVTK
The settings on record: competition binding, % of control. The method, boiled down:
as §1

For another assay, the target named is CDK8 (Homo sapiens, UniProt P49336). To be noted: competition binding, % of control; read-out: Percent Control (100 uM Levosimendan). In a few lines:
as §1

[2] abbreviates: read-out: Percent Control (10 uM Levosimendan).
Where [3] appears, read: read-out: Percent Control (100 uM Levosimendan).

T2 sequence (O00141 whole entry): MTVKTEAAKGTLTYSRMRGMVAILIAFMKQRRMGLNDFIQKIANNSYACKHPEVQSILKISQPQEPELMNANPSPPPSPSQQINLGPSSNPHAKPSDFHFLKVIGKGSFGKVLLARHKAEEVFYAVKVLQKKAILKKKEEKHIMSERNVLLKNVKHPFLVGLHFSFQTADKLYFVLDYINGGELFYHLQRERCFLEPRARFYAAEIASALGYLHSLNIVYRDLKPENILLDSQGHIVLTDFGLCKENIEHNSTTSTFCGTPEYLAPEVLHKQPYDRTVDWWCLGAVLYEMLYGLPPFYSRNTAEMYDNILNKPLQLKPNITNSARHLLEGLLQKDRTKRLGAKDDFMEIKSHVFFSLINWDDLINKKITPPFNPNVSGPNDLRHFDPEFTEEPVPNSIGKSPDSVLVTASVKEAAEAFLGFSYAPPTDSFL
T4 sequence (Q9UPZ9 whole entry): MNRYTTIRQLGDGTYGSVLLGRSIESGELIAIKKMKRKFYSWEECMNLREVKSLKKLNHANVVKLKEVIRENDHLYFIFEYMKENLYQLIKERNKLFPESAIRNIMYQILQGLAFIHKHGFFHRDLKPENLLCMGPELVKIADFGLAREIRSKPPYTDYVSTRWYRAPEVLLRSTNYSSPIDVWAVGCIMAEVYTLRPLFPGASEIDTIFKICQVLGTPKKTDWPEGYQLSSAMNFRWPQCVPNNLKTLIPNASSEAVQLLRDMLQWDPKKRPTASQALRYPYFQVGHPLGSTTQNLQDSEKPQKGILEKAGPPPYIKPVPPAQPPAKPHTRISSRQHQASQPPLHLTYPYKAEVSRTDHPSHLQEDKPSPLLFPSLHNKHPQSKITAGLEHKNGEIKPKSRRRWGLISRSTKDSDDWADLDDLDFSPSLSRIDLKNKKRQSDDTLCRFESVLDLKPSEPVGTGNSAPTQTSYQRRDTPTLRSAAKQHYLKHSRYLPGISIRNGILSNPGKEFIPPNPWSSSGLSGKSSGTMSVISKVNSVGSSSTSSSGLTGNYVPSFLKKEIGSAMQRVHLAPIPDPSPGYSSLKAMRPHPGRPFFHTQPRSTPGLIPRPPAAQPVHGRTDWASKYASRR
Chain of MYLK2 (Q9H1R3 whole entry): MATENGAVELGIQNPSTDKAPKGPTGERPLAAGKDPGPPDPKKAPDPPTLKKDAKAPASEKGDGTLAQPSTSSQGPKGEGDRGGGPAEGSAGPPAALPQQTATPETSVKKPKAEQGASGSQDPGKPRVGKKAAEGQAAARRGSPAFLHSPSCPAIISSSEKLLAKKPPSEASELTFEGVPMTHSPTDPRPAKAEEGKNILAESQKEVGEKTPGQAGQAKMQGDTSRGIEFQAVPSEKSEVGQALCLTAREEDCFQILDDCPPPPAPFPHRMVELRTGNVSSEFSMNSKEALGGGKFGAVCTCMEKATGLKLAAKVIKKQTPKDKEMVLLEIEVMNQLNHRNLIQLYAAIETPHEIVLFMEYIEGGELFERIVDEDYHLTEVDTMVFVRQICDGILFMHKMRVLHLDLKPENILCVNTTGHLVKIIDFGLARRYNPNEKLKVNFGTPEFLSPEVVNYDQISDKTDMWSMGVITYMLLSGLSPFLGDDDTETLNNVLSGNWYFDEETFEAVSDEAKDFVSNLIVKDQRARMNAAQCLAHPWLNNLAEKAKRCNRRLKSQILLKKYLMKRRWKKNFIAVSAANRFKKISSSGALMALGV
Chain of EPHA2 (P29317 whole entry): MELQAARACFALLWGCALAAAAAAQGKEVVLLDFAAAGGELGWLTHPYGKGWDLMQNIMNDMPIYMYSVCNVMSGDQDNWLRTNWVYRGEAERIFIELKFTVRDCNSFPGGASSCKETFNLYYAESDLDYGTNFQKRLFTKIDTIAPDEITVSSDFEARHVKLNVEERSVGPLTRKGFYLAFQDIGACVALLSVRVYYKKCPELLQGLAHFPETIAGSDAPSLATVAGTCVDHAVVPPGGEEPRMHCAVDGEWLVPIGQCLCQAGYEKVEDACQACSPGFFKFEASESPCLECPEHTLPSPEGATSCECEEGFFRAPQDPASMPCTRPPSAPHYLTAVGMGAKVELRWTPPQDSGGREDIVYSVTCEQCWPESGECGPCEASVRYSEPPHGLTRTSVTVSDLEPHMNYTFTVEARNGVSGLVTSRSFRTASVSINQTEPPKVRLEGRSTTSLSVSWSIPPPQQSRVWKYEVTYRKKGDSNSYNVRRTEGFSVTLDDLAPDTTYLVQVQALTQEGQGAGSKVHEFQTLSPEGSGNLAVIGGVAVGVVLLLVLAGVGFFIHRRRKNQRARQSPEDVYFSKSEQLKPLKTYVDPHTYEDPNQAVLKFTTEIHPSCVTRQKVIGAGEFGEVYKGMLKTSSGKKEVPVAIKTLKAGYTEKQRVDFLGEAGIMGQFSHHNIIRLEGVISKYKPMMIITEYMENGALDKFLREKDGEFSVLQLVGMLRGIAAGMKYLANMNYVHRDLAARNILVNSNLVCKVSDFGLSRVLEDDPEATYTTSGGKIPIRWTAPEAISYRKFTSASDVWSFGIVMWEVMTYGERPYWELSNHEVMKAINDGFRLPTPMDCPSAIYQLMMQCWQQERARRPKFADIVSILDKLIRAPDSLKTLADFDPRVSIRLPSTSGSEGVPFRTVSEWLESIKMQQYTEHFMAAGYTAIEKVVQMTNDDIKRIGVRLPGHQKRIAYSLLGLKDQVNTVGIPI
T6 sequence (Q9Y2H1 whole entry): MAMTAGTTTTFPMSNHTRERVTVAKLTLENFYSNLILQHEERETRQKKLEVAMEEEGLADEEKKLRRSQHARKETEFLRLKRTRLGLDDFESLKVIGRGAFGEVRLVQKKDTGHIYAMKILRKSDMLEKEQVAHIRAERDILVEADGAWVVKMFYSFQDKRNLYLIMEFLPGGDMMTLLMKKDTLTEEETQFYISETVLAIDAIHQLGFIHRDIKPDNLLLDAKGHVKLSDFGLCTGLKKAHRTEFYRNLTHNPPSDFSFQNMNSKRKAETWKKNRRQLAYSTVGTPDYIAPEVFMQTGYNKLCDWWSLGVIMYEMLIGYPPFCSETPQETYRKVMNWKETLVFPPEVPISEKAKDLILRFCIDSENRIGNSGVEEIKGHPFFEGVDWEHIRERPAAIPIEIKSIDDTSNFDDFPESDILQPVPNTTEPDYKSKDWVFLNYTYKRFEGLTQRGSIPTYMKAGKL
Chain of BTK (Q06187 whole entry): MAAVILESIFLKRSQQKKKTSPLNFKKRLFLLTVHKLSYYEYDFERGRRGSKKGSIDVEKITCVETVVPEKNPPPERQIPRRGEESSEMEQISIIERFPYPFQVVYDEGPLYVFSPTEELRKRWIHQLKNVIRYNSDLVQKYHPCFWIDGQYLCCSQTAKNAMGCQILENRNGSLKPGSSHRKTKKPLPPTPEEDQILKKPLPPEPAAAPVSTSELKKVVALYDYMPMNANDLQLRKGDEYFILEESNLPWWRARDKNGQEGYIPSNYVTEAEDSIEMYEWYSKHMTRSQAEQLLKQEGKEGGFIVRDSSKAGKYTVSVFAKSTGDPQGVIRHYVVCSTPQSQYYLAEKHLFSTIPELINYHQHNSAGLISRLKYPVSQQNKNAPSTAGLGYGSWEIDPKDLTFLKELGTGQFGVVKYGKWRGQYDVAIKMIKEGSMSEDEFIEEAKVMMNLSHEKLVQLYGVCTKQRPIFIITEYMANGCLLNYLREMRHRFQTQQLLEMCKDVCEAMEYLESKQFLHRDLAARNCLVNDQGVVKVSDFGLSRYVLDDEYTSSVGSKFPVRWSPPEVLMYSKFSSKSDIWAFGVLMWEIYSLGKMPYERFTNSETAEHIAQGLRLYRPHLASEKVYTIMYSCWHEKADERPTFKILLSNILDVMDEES
T8 sequence (P52564 whole entry): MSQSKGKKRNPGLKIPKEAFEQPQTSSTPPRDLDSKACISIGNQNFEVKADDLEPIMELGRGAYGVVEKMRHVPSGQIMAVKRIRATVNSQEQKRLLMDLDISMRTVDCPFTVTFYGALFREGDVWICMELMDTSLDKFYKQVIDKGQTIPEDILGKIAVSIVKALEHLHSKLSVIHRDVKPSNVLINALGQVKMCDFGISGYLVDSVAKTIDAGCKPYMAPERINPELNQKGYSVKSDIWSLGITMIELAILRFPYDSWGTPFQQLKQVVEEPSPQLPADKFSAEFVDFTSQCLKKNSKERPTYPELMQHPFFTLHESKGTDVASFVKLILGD
Chain of SRPK2 (P78362 whole entry): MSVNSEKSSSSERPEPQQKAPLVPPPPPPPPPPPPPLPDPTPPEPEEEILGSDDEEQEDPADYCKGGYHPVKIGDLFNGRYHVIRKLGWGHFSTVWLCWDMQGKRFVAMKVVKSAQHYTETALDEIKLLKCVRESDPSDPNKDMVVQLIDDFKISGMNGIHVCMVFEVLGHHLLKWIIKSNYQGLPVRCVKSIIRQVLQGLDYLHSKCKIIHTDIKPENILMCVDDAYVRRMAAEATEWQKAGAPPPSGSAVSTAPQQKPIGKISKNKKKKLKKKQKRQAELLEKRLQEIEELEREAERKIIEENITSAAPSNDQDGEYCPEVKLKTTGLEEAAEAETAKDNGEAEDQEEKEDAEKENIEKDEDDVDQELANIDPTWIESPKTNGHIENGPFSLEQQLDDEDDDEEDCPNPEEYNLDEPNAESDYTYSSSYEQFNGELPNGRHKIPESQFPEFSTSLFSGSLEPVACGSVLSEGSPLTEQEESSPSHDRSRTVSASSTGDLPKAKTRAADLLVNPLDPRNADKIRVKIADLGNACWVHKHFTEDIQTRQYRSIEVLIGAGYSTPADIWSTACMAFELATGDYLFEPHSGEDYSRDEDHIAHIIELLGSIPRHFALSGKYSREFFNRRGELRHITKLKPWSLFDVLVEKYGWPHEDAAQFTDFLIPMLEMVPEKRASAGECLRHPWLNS

With `C[C@@H]1CC(=O)NN=C1c1ccc(NN=C(C#N)C#N)cc1` [levosimendan], the remaining binding at 100 µM at BTK turned out to be 100%; at QSK, 82%; at SGK (setting [3]) it was 40%; at TSSK1B, 85%; in assay [1] it was 100%; on ICK, 94%. For the same compound, the remaining binding at 100 µM is 100% on CDC2L2; 100% at SRPK2; 64% on PIM1; 76% at EPHA2; 96% on NDR2; 70% at LOK. Moreover, the remaining binding at 100 µM is 81% on MYLK2, 100% at MEK6, 24% at MYLK4 (setting [3]) and 100% at CDK8. In addition, the remaining binding at 10 µM at SGK (setting [2]) was 81%; on MYLK4 (setting [2]), 85%.
